Reference: ChEMBL document CHEMBL3779889, “Synthetic approaches to the 2014 new drugs” (Bioorg Med Chem, 2016)
Counter-ions that a name gives are not always drawn. Values belong to the compound of their own block, whether it stands above or below them.

Experiments:
[1] = Half life of compound in human plasma in presence of CYP3A inhibitor ritonavir; format: ADME, organism-based; conditions: with ritonavir (CYP3A inhibitor)
Hepatitis C virus = experiment: Antiviral activity against HCV genotype 1a; format: functional, organism-based, Hepacivirus hominis; conditions: subtype 1a
[2] = biological target: Vascular endothelial growth factor receptor 2 (Homo sapiens, UniProt P35968); experiment: Inhibition of VEGF2 receptor (unknown origin) by ELISA
[3] = biological target: T1, Sodium/glucose cotransporter 2 (Homo sapiens, UniProt P31639); experiment: Competitive inhibition of human SGLT2 expressed in CHO-K1 cells assessed as inhibition of [14C]-alpha-methylglucoside uptake; format: cell-based
T1 sequence (P31639 whole entry): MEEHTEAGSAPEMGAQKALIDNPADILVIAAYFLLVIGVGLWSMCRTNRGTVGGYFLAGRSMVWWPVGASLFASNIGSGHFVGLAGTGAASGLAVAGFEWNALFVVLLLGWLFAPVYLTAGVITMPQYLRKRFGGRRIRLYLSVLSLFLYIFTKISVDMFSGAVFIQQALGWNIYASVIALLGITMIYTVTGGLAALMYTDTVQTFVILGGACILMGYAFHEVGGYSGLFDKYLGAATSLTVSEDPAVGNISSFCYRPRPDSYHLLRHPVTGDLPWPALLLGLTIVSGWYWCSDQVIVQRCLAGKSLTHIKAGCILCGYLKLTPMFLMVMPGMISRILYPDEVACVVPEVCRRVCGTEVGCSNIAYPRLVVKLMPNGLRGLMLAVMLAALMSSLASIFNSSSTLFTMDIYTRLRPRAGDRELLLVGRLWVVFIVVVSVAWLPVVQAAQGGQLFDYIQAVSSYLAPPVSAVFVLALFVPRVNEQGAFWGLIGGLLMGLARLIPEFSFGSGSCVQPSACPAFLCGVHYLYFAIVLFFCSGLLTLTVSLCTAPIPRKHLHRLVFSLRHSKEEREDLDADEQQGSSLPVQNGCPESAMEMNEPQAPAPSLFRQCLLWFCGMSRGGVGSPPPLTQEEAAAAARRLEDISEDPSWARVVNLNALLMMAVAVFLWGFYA

Chain of Vascular endothelial growth factor receptor 2 (P35968 whole entry): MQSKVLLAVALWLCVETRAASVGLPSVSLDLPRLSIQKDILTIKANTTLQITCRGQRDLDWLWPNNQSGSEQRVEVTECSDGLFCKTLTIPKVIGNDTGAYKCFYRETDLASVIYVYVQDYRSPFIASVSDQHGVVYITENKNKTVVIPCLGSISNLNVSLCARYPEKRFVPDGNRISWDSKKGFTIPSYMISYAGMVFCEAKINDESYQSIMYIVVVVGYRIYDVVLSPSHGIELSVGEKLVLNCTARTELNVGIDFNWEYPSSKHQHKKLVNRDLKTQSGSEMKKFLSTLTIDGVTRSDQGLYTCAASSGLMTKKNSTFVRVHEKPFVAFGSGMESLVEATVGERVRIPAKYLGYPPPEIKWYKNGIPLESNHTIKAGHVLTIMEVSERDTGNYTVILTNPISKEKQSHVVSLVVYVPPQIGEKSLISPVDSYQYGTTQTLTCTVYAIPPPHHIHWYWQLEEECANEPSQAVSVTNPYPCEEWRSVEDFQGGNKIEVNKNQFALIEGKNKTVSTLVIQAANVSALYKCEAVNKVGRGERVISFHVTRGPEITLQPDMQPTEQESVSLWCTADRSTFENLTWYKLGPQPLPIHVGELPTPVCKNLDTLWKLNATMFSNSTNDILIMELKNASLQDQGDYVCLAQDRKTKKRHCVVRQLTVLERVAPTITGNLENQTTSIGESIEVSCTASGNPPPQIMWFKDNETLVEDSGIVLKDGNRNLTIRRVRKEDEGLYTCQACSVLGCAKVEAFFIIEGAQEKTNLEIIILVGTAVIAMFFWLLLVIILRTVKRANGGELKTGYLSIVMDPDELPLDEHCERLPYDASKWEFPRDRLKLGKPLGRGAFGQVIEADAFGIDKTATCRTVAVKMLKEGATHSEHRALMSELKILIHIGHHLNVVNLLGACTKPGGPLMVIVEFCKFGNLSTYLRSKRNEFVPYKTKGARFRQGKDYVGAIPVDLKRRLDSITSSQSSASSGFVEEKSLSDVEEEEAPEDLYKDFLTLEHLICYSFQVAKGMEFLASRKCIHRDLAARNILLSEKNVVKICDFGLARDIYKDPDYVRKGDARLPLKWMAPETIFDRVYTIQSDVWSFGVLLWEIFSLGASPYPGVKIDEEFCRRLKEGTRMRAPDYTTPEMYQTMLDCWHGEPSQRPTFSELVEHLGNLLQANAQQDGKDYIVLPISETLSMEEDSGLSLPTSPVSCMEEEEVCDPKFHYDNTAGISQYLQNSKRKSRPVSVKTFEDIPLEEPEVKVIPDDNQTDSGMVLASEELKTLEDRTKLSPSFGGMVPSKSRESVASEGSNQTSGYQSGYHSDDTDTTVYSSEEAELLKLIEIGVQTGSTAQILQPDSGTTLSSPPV

half-life [1]: 5.5 h
EC50 (Hepatitis C virus): 1 nM
SMILES: Cc1cnc(C(=O)N[C@H]2CCCCC/C=C\[C@@H]3C[C@@]3(C(=O)NS(=O)(=O)C3CC3)NC(=O)[C@@H]3C[C@@H](Oc4nc5ccccc5c5ccccc45)CN3C2=O)cn1.O.O

IC50 [2]: 1 nM
SMILES: N#CC1(c2ccc(NC(=O)c3cccnc3NCc3ccncc3)cc2)CCCC1 [RIVOCERANIB MESYLATE]

Ki [3]: 1.1 nM
SMILES: CCOc1ccc(Cc2cc([C@@H]3S[C@H](CO)[C@@H](O)[C@H](O)[C@H]3O)c(OC)cc2C)cc1
